According to patent US20070098826A1, “Use of pinitol or chiroinositol for protecting the liver” (AMICOGEN, INC., priority 2003, published 2007):

Assays:
[1] = rats, oral, 5,000 mg/kg, day 14
Method: 6 week-old, specific pathogen-free Sprague-Dawley female rats (15 heads), each weighing about 130 to 147 g, and male rats (15 heads), each weighing about 110 to 123 g, were bred under the condition of 23±3° C., 55±15% relative humidity and 12 L/12 D photoperiod. Fodder (Harlan, U.S.A.) and water were sterilized and fed to the rats. The rats were acclimated for 1 week before the administration of pinitol.
Pinitol was dissolved in physiological saline and the solution was orally administered to each rat in an amount of 5,000 mg/kg of rat body weight. […] The weight changes of the rats were recorded at day 1, 3, 7 and 14 to examine the effect of pinitol. Further, on day 14, the rats were sacrificed and the internal organs were visually examined.

[2] = system: Liver Damaged by Carbon Tetrachloride; experiment: Protective activity for the liver damaged by carbon tetrachloride (blood GOT and GPT); assay type: in vivo, Sprague-Dawley rats; details: CCl4 rats; for GOT / GPT: blood on day 8; for GOT Inhibition (%) / GPT Inhibition (%): day 8
Method: The rats were divided into 8 groups and carbon tetrachloride was injected subcutaneously into the rats except the rats of the normal group in an amount of 0.5 ml/kg at 1st and 5th day. On day 2, pinitol or chiroinositol dissolved in 10 ml of water was orally administered to the rats of the experimental groups in an amount of 5-20 mg/kg of rat body weight. The normal and control groups were treated with 10 ml of distilled water instead of pinitol. On day 8, GOT and GPT concentrations in the blood sample taken from the orbital vein of each rat was measured by using blood analyzer (Vitros DT-60, Johnson & Johnson) and the result is shown in Table II. The degree of inhibition (%) was then calculated in accordance with the following equation: [formula]

SOD activity in liver = experiment: Determination of SOD activity in liver of carbon tetrachloride treated rats; assay type: in vivo, Sprague-Dawley rats; details: for SOD activity (U/g Liver): CCl4 i.p., liver 24 hours later; for SOD activity Relative Value (%): control group = 100
Method: The rats were divided into 7 groups and pinitol dissolved in 10 ml of water was orally administered to the rats of the experimental groups in an amount of 200-1000 mg/kg of rat body weight everyday for 4 days. The comparative group rats were treated with Silymarin (Sigma Chemical Co.) in an amount of 200 mg/kg, the normal and control groups were each treated with 10 ml of distilled water. On day 4, a mixture of carbon tetrachloride and soybean oil (1:1 (v/v)) was injected intraperitoneally into the rats except the rats of the normal group in an amount of 0.5 ml/kg, 90 minutes after the administration of pinitol. 24 hours thereafter, SOD activity of the liver taken out from each rat was measured according to the method of Neoot et al., (Methods Enzymol., 186: 209-219 (1993)) and tested by student t-test.

[3] = system: glutathione content of liver; experiment: Content of glutathione in liver of streptozotocin diabetic rats; assay type: in vivo, Sprague-Dawley rats; details: for Glutathione content as compared to the normal group / Glutathione content Relative value: 10 mg/kg; for Glutathione content (μ mole/g): 10 mg/kg oral everyday for 4 days, liver; for Glutathione content Relative value: normal group = 100
Method: In order to induce diabetes in rats, streptozotocin (Sigma Chemical Co., USA) dissolved in 0.01M citrate buffer solution (pH 4.5) was injected into the abdominal cavity of 8 week-old Sprague-Dawley rats in an amount of 45 mg/kg of rat body weight. […] The diabetic rats were divided into 3 groups, each of 12-15 rats, and pinitol or chiroinositol dissolved in 10 ml of water was orally administered to the rats of two groups (experimental groups 1 and 2) in an amount of 10 mg/kg of rat body weight everyday for 4 days. Rats of the normal group and control group (diabetic group) were each treated with 10 ml of distilled water. After fasting during 18 hours, the rats were anesthetized with ethyl ether, sacrificed, the liver was taken and washed with cold physiological saline. The glutathione content of the homogenized liver solution was measured according to the method of Ellman (Arch. Biochem. Biophy., 70-77 (1959)) and the result is shown in Table IV.

[4] = system: serum GOT, GPT and γ-GTP levels; experiment: Protective activity for liver in adults with elevated serum GOT or γ-GTP (serum GOT, GPT, γ-GTP); assay type: in vivo, human; details: oral 600 mg daily for 2 months
Method: Pinitol was orally administered to adults (the average age: 51.8 years, man 7 and female 8) showing serum GOT or γ-GPT level higher than 50 IU/L at a daily dose of 600 mg for 2 months. Serum GOT, GPT and γ-GTP levels were determined before and after the administration.

Question: With `CO[C@H]1[C@H](O)[C@@H](O)[C@@H](O)[C@H](O)[C@@H]1O` [Pinitol, pinitol] as the molecule, how does the “Autopsy, pathological abnormality of internal organs” value [1] read?
Answer: did not develop any pathological abnormality

Question: What about the GOT ([2]; 5 mg/kg oral) of the same molecule?
Answer: 298 ± 28 IU/L

Question: What about the GPT ([2]; 5 mg/kg oral) of the same molecule?
Answer: 134 ± 7 IU/L

Question: What about the “GOT Inhibition (%)” value ([2]; 5 mg/kg oral) of the same molecule?
Answer: 49.7%

Question: And the “GPT Inhibition (%)” value ([2]; 5 mg/kg oral)?
Answer: 54.6%

Question: What about the GOT ([2]; 10 mg/kg oral) of the same molecule?
Answer: 188 ± 22 IU/L

Question: And the GPT ([2]; 10 mg/kg oral)?
Answer: 92 ± 5 IU/L

Question: And the “GOT Inhibition (%)” value ([2]; 10 mg/kg oral)?
Answer: 73.4%

Question: And the “GPT Inhibition (%)” value ([2]; 10 mg/kg oral)?
Answer: 72.9%

Question: And the GOT ([2]; 20 mg/kg oral)?
Answer: 192 ± 17 IU/L

Question: What about the GPT ([2]; 20 mg/kg oral) of the same molecule?
Answer: 75 ± 4 IU/L

Question: What about the “GOT Inhibition (%)” value ([2]; 20 mg/kg oral) of the same molecule?
Answer: 72.6%

Question: What about the “GPT Inhibition (%)” value ([2]; 20 mg/kg oral) of the same molecule?
Answer: 80.3%

Question: And the “SOD activity lower than that of the control group by” value (SOD activity in liver; 200 mg/kg)?
Answer: 7%

Question: And the “SOD activity (U/g Liver)” value (SOD activity in liver; 200 mg/kg oral everyday for 4 days)?
Answer: 217 ± 74 U/g Liver

Question: What about the “SOD activity Relative Value (%)” value (SOD activity in liver; 200 mg/kg) of the same molecule?
Answer: 93%

Question: What about the “SOD activity higher than that of the control group by” value (from here on “SOD activity higher than that”) (SOD activity in liver; 300 mg/kg) of the same molecule?
Answer: 24%

Question: And the “SOD activity (U/g Liver)” value (SOD activity in liver; 300 mg/kg oral everyday for 4 days)?
Answer: 289 ± 45 U/g Liver

Question: And the “SOD activity Relative Value (%)” value (SOD activity in liver; 300 mg/kg)?
Answer: 124%

Question: What about the “Effect on SOD activity in the liver” value (SOD activity in liver; 300 mg/kg, p<0.05) of the same molecule?
Answer: raises SOD activity in the liver

Question: What about the “SOD activity higher than that” value (SOD activity in liver; 500 mg/kg) of the same molecule?
Answer: 44%

Question: What about the “SOD activity (U/g Liver)” value (SOD activity in liver; 500 mg/kg oral everyday for 4 days) of the same molecule?
Answer: 335 ± 52 U/g Liver

Question: What about the “SOD activity Relative Value (%)” value (SOD activity in liver; 500 mg/kg) of the same molecule?
Answer: 144%

Question: And the “SOD activity higher than that” value (SOD activity in liver; 1000 mg/kg)?
Answer: 35%

Question: What about the “SOD activity (U/g Liver)” value (SOD activity in liver; 1000 mg/kg oral everyday for 4 days) of the same molecule?
Answer: 315 ± 38 U/g Liver

Question: And the “SOD activity Relative Value (%)” value (SOD activity in liver; 1000 mg/kg)?
Answer: 135%

Question: What about the “Glutathione content as compared to the normal group” value [3] of the same molecule?
Answer: 96%

Question: What about the “Glutathione content (μ mole/g)” value [3] of the same molecule?
Answer: 16.38 ± 2.43 μ mole/g

Question: And the “Glutathione content Relative value” [3]?
Answer: 95.8

Question: And the “Serum GOT After administration” value [4]?
Answer: 31.4 ± 3.0 IU/L

Question: What about the “Serum GPT After administration” value [4] of the same molecule?
Answer: 43.2 ± 8.1 IU/L

Question: And the “Serum γ-GTP After administration” value [4]?
Answer: 82.6 ± 17.5 IU/L

Question: What about the “Serum GOT Degree of decrease (%)” value ([4]; vs before administration) of the same molecule?
Answer: 45.3%

Question: And the “Serum GPT Degree of decrease (%)” value ([4]; vs before administration)?
Answer: 51.8%

Question: What about the “Serum γ-GTP Degree of decrease (%)” value ([4]; vs before administration) of the same molecule?
Answer: 41.1%

Question: What does the source list for `OC1C(O)C(O)C(O)C(O)C1O` (centres unmarked) [chiroinositol]?
Answer: GOT ([2]; 5 mg/kg oral): 321 ± 35 IU/L; GPT ([2]; 5 mg/kg oral): 156 ± 12 IU/L; GOT Inhibition (%) ([2]; 5 mg/kg oral): 44.0%; GPT Inhibition (%) ([2]; 5 mg/kg oral): 45.0%; GOT ([2]; 10 mg/kg oral): 205 ± 28 IU/L; GPT ([2]; 10 mg/kg oral): 80 ± 9 IU/L; GOT Inhibition (%) ([2]; 10 mg/kg oral): 69.4%; GPT Inhibition (%) ([2]; 10 mg/kg oral): 78.2%; GOT ([2]; 20 mg/kg oral): 174 ± 26 IU/L; GPT ([2]; 20 mg/kg oral): 88 ± 7 IU/L; GOT Inhibition (%) ([2]; 20 mg/kg oral): 76.1%; GPT Inhibition (%) ([2]; 20 mg/kg oral): 74.7%; Glutathione content as compared to the normal group [3]: 85%; Glutathione content (μ mole/g) [3]: 14.52 ± 0.57 μ mole/g; Glutathione content Relative value [3]: 85.0
